Test results as given in patent US20200000755A1, “TREATMENT OF INFLAMMATORY DISORDERS IN NON-HUMAN MAMMALS” (THE REGENTS OF THE UNIVERSITY OF CALIFORNIA, priority 2012, published 2020).
pIC50: −log10 of the molar value.

What was measured:
Canine sEH = molecular target: T1, Canine sEH (Canis lupus familiaris, UniProt A0A8I3NJL8); assay: sEH inhibitor screen of canine sEH; assay type: biochemical
T1 sequence (A0A8I3NJL8 1-556): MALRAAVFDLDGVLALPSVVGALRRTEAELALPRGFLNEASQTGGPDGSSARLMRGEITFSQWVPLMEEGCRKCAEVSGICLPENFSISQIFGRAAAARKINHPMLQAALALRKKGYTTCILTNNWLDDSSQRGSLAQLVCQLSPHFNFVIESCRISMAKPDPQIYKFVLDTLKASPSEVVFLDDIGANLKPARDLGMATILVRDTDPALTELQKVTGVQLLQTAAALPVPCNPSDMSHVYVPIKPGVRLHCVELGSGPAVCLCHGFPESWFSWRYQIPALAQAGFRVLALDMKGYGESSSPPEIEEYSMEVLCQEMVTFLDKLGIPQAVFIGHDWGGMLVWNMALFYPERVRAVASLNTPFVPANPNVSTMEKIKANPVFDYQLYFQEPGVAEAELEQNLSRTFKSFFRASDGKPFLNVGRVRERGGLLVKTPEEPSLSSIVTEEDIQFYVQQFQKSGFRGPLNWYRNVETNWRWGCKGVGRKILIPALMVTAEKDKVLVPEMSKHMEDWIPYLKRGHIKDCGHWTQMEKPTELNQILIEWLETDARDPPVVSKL

COX-1 and COX-2 = settings: cited from earlier work
Sheep sEH = Sheep sEH (Ovis aries, UniProt A0ACI6PZ20); assay: sEH inhibitor screen of domestic animals, radioactive assay, liver cytosolic preparation; assay type: biochemical
Sequence of Sheep sEH (A0ACI6PZ20 entry or part of it): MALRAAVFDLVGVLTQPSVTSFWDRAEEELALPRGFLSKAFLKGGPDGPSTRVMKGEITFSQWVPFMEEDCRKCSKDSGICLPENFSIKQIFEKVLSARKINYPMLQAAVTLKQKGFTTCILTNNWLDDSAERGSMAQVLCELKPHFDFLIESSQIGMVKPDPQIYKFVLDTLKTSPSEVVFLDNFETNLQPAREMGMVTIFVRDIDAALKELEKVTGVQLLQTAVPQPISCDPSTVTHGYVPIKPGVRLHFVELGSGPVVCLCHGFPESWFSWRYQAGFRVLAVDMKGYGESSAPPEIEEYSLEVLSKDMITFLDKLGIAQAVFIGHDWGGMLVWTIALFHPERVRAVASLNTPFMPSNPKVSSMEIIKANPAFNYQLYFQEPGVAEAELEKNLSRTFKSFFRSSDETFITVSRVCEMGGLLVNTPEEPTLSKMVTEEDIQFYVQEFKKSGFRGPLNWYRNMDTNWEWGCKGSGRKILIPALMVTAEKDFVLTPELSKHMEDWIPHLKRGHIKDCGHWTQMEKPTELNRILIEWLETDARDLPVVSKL

sEH = molecular target: T2, sEH (Homo sapiens, UniProt P34913); assay: Activity as inhibitor of sEH (general statements); assay type: biochemical
T2 sequence (P34913 1-555): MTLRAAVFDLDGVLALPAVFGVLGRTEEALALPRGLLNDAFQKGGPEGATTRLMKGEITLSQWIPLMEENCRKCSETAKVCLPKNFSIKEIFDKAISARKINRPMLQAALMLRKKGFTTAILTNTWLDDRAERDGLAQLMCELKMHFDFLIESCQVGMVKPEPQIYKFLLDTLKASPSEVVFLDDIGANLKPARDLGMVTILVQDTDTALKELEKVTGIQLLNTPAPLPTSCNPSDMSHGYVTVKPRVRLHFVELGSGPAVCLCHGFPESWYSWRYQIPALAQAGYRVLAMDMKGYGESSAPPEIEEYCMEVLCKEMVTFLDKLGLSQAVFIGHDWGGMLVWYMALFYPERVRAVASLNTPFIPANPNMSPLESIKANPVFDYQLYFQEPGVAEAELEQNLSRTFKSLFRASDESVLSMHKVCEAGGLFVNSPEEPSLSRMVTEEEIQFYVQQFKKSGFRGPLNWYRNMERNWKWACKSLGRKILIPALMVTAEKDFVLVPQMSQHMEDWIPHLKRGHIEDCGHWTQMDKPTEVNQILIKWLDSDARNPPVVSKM
Text: Derivatives of urea are transition state mimetics that form a preferred group of sEH inhibitors. […] Any particular urea derivative or other compound can be easily tested for its ability to inhibit sEH by standard assays, such as those discussed herein. The production and testing of urea and carbamate derivatives as sEH inhibitors is set forth in detail in, for example, Morisseau et al., Proc Natl Acad Sci (USA) 96:8849-8854 (1999).
One category of these inhibitors comprises inhibitors that mimic the substrate for the enzyme. The lipid alkoxides (e.g., the 9-methoxide of stearic acid) are an exemplar of this group of inhibitors.

[1] = Plasma concentrations and pharmacokinetics in the laminitic horse; settings: phenylbutazone 3-4 mg/kg BID PO, gabapentin 20 mg/kg BID PO
[2] = Thoroughbred, horse, in vivo, iv, 0.1 mg/kg
[3] = horse, in vivo, iv, 0.1 mg/kg, 5 days

With `O=C(Nc1ccc(OC(F)(F)F)cc1)N[C@H]1CC[C@H](Oc2ccc(-c3nnn[nH]3)cc2)CC1` [compound 2806, 1-(trans-4-(4-(1H-tetrazol-5-yl)-phenoxy)-cyclohexyl)-3-(4-(trifluoromethoxy)-phenyl)-urea] the pIC50 (Canine sEH) was greater than 9.00.
With `CS(=O)(=O)NC(=O)c1ccc(O[C@H]2CC[C@H](NC(=O)Nc3ccc(OC(F)(F)F)cc3)CC2)cc1` [compound 2728, N-(methylsulfonyl)-4-(trans-4-(3-(4-trifluoromethoxy-phenyl)-ureido)-cyclohexyloxy)-benzamide] the pIC50 (Canine sEH) was 7.00.
For `O=C(Nc1ccccc1F)N[C@H]1CC[C@H](Oc2ccc(C(=O)O)cc2)CC1` [compound 2736, 4-(trans-4-(3-(2-fluorophenyl)-ureido)-cyclohexyloxy)-benzoic acid], the pIC50 (Canine sEH) was 7.41.
In the case of `COc1ccc2c(c1)c(CC(=O)O)c(C)n2C(=O)c1ccc(Cl)cc1` [indomethacin], the “COX-2 (IC50)/COX-1 (IC50) ratio” value (COX-1 and COX-2) is given as 33.
`CS(=O)(=O)N1CCC(NC(=O)Nc2ccc(OC(F)(F)F)cc2)CC1` [compound 1709, 1-(1-methylsulfonyl-piperidin-4-yl)-3-(4-trifluoromethoxy-phenyl)-urea] gave a pIC50 (Sheep sEH) of 7.52.
In the case of `CCCCCCCCCCCCNC(=O)NC12CC3CC(CC(C3)C1)C2` [ADU, N-Adamantyl-N′-dodecyl urea], the “activity on sEH” value (sEH) was “particularly high activity on sEH”.
Compound `O=C(Nc1ccc(OC(F)(F)F)cc1)NC1CCN(C(=O)C2CC2)CC1` [compound 2214, 1-(1-(cyclopropanecarbonyl)piperidin-4-yl)-3-(4-(trifluoromethoxy)phenyl)urea] has a pIC50 (Sheep sEH) of 7.74.
For `CC(=O)Oc1ccccc1C(=O)O` [Aspirin], the “COX-2 (IC50)/COX-1 (IC50) ratio” value (COX-1 and COX-2) is given as 0.32.
For `NCC1(CC(=O)O)CCCCC1` [gabapentin], the “highest measured plasma concentration” value [1] was 18 µM.
With `O=C(Nc1ccc(Oc2ccc(C(=O)O)cc2)cc1)Nc1ccc(OC(F)(F)F)cc1` [compound 2803, 4-(4-(3-(4-(trifluoromethoxy)-phenyl)-ureido)-phenoxy)-benzoic acid] the pIC50 (Canine sEH) was 7.38.
For `O=C(Nc1ccc(OC(F)F)cc1)N[C@H]1CC[C@H](Oc2ccc(C(=O)O)cc2)CC1` [compound 2805, 4-(trans-4-(3-(4-(difluoromethoxy)-phenyl)-ureido)-cyclohexyloxy)-benzoic acid], the pIC50 (Canine sEH) was 7.72.
With `O=C(Nc1ccc(OC(F)(F)F)cc1)N[C@H]1CC[C@H](Oc2ccc(C(=O)O)cc2)CC1` [compound 1728, trans-4-{4-[3-(4-Trifluoromethoxy-phenyl)-ureido]-cyclohexyloxy}-benzoic acid] the “daily plasma concentration, peak (did not reach)” value [2] was less than 2.5 µM, the “daily plasma concentration, trough (fell below on one occasion in the first day)” value [2] was “below 30 nM” and the “adverse effects in clinical exams and blood work” value [3] was “No adverse effects were observed”.
For `Cc1oc(=O)oc1COC(=O)c1ccc(O[C@H]2CC[C@H](NC(=O)Nc3ccc(OC(F)(F)F)cc3)CC2)cc1` [compound 2796, (5-methyl-2-oxo-1,3-dioxol-4-yl)methyl 4-((1r,4r)-4-(3-(4-(trifluoromethoxy)-phenyl)-ureido)-cyclohexyloxy)-benzoate], the pIC50 (Canine sEH) was 7.42.
For `O=C(Nc1ccc(OC(F)(F)F)cc1)Nc1ccc(Oc2ccc(C(=O)O)cc2)cc1F` [compound 2807, 4-(3-fluoro-4-(3-(4-(trifluoromethoxy)-phenyl)-ureido)-phenoxy)-benzoic acid], the pIC50 (Canine sEH) was 7.85.
With `CCS(=O)(=O)N1CCC(NC(=O)Nc2ccc(OC(F)(F)F)cc2)CC1` [compound 2213, 1-(1-ethylsulfonyl-piperidin-4-yl)-3-(4-trifluoromethoxy-phenyl)-urea] the pIC50 (Sheep sEH) was 7.48.
